Assay results from article PMC4840931 (Clinical cancer research : an official journal of the …, 2015).
Like-named read-outs stand apart in the source and are kept apart here. Marks after values point to notes of the source that are not given here.

How the values were obtained:
[1] = tested on: patients with advanced solid tumors; assay type: in vivo
[2] = tested on: patients with advanced solid tumors; assay: Tumor response by RECIST version 1.0; assay type: in vivo, human
Plasma pharmacokinetics = details: human, in vivo
[3] = Urinary excretion of unchanged lenvatinib; assay type: in vivo, human; details: for fe (fraction of the dose excreted in urine): mean (SD)
[4] = tested on: human umbilical vein endothelial cell; details: cited from earlier work
[5] = tested on: human umbilical vein endothelial cell; details: cited from earlier work; remark: listed apart in the source
[6] = tested on: human lung (H146) mouse xenograft; details: cited from earlier work
[7] = tested on: breast cancer (MDA-MB-231) mouse xenograft; details: cited from earlier work
[8] = cited from earlier work

Which results are given for `COc1cc2nccc(Oc3ccc(NC(=O)NC4CC4)c(Cl)c3)c2cc1C(N)=O` [lenvatinib]?
Study drug–related TEAE, Hypertension, CTCAE grade 3 ([1]; Entire Study Population (N=77)): 13 (16.9) n (%); Study drug–related TEAE, Hypertension, CTCAE grade 3+4 ([1]; Entire Study Population (N=77)): 13 (16.9) n (%); Study drug–related TEAE, Diarrhea, Total ([1]; Melanoma Expansion Cohort 10.0 mg bid (n=26)): 8 (30.8) n (%); Died during therapy or within 30 days of the last treatment ([1]; expanded melanoma cohort (n=26)): 30.8%; Grade 3 study drug–related toxicity: body weight reduction ([1]; human, in vivo): 8%; Grade 3 study drug–related toxicity: diarrhea ([1]; human, in vivo): 5%; Grade 3 study drug–related toxicity: fatigue ([1]; human, in vivo): 7%; Grade 3 study drug–related toxicity: hypertension ([1]; human, in vivo): 17%; Grade 3 study drug–related toxicity: proteinuria ([1]; human, in vivo): 5%; Grade 4 proteinuria, treatment-related ([1]; human, in vivo): 1 event; Grade 4 reversible posterior leukoencephalopathy syndrome, treatment-related ([1]; human, in vivo): 1 event; Grade 4 thrombocytopenia, treatment-related ([1]; human, in vivo): 1 event; Grade 4 thrombotic thrombocytopenic purpura, treatment-related ([1]; human, in vivo): 1 event; Study drug–related TEAE, Anorexia, CTCAE grade 1 ([1]; human, in vivo): 8 (10.4) n (%); Study drug–related TEAE, Anorexia, CTCAE grade 2 ([1]; human, in vivo): 11 (14.3) n (%); Study drug–related TEAE, Anorexia, CTCAE grade 3 ([1]; human, in vivo): 0 n (%); Study drug–related TEAE, Anorexia, CTCAE grade 3+4 ([1]; human, in vivo): 0 n (%); Study drug–related TEAE, Anorexia, CTCAE grade 4 ([1]; human, in vivo): 0 n (%); Study drug–related TEAE, Anorexia, Total ([1]; human, in vivo): 19 (24.7) n (%); Study drug–related TEAE, Any AE, CTCAE grade 1 ([1]; human, in vivo): 6 (7.8) n (%); Study drug–related TEAE, Any AE, CTCAE grade 2 ([1]; human, in vivo): 30 (39.0) n (%); Study drug–related TEAE, Any AE, CTCAE grade 3 ([1]; human, in vivo): 28 (36.4) n (%); Study drug–related TEAE, Any AE, CTCAE grade 3+4 ([1]; human, in vivo): 32 (41.6) n (%); Study drug–related TEAE, Any AE, CTCAE grade 4 ([1]; human, in vivo): 4 (5.2) n (%); Study drug–related TEAE, Any AE, Total ([1]; human, in vivo): 68 (88.3) n (%); Study drug–related TEAE, Diarrhea, CTCAE grade 1 ([1]; human, in vivo): 7 (9.1) n (%); Study drug–related TEAE, Diarrhea, CTCAE grade 2 ([1]; human, in vivo): 6 (7.8) n (%); Study drug–related TEAE, Diarrhea, CTCAE grade 3 ([1]; human, in vivo): 4 (5.2) n (%); Study drug–related TEAE, Diarrhea, CTCAE grade 3+4 ([1]; human, in vivo): 4 (5.2) n (%); Study drug–related TEAE, Diarrhea, CTCAE grade 4 ([1]; human, in vivo): 0 n (%); Study drug–related TEAE, Diarrhea, Total ([1]; human, in vivo): 17 (22.1) n (%); Study drug–related TEAE, Fatigue, CTCAE grade 1 ([1]; human, in vivo): 10 (13.0) n (%); Study drug–related TEAE, Fatigue, CTCAE grade 2 ([1]; human, in vivo): 17 (22.1) n (%); Study drug–related TEAE, Fatigue, CTCAE grade 3 ([1]; human, in vivo): 5 (6.5) n (%); Study drug–related TEAE, Fatigue, CTCAE grade 3+4 ([1]; human, in vivo): 5 (6.5) n (%); Study drug–related TEAE, Fatigue, CTCAE grade 4 ([1]; human, in vivo): 0 n (%); Study drug–related TEAE, Fatigue, Total ([1]; human, in vivo): 32 (41.6) n (%); Study drug–related TEAE, Hypertension, CTCAE grade 1 ([1]; human, in vivo): 2 (2.6) n (%); Study drug–related TEAE, Hypertension, CTCAE grade 2 ([1]; human, in vivo): 18 (23.4) n (%); Study drug–related TEAE, Hypertension, CTCAE grade 4 ([1]; human, in vivo): 0 n (%); Study drug–related TEAE, Hypertension, Total ([1]; human, in vivo): 33 (42.9) n (%); Study drug–related TEAE, Nausea, CTCAE grade 1 ([1]; human, in vivo): 9 (11.7) n (%); Study drug–related TEAE, Nausea, CTCAE grade 2 ([1]; human, in vivo): 8 (10.4) n (%); Study drug–related TEAE, Nausea, CTCAE grade 3 ([1]; human, in vivo): 2 (2.6) n (%); Study drug–related TEAE, Nausea, CTCAE grade 3+4 ([1]; human, in vivo): 2 (2.6) n (%); Study drug–related TEAE, Nausea, CTCAE grade 4 ([1]; human, in vivo): 0 n (%); Study drug–related TEAE, Nausea, Total ([1]; human, in vivo): 19 (24.7) n (%); Study drug–related TEAE, Proteinuria, CTCAE grade 1 ([1]; human, in vivo): 7 (9.1) n (%); Study drug–related TEAE, Proteinuria, CTCAE grade 2 ([1]; human, in vivo): 18 (23.4) n (%); Study drug–related TEAE, Proteinuria, CTCAE grade 3 ([1]; human, in vivo): 4 (5.2) n (%); Study drug–related TEAE, Proteinuria, CTCAE grade 3+4 ([1]; human, in vivo): 5 (6.5) n (%); Study drug–related TEAE, Proteinuria, CTCAE grade 4 ([1]; human, in vivo): 1 (1.3) n (%); Study drug–related TEAE, Proteinuria, Total ([1]; human, in vivo): 30 (39.0) n (%); Study drug–related TEAE, Weight decreased, CTCAE grade 1 ([1]; human, in vivo): 6 (7.8) n (%); Study drug–related TEAE, Weight decreased, CTCAE grade 2 ([1]; human, in vivo): 7 (9.1) n (%); Study drug–related TEAE, Weight decreased, CTCAE grade 3 ([1]; human, in vivo): 6 (7.8) n (%); Study drug–related TEAE, Weight decreased, CTCAE grade 3+4 ([1]; human, in vivo): 6 (7.8) n (%); Study drug–related TEAE, Weight decreased, CTCAE grade 4 ([1]; human, in vivo): 0 n (%); Study drug–related TEAE, Weight decreased, Total ([1]; human, in vivo): 19 (24.7) n (%); Study drug–related toxicity: diarrhea ([1]; human, in vivo): 22%; Study drug–related toxicity: fatigue ([1]; human, in vivo): 42%; Study drug–related toxicity: hypertension ([1]; human, in vivo): 43%; Study drug–related toxicity: nausea ([1]; human, in vivo): 25%; Study drug–related toxicity: proteinuria ([1]; human, in vivo): 39%; Dose-limiting toxicities ([1]; in vivo): no DLTs; Died during therapy or within 30 days of the last treatment ([1]; overall population n=77): 16.9%; Maximum tolerated dose (MTD) ([1]; po bid, continuous dosing, 28-day cycles): 10 mg; Durable SD ≥23 weeks ([2]; all 29 patients with melanoma): 24.1%; PD ([2]; all 29 patients with melanoma): 17.2%; PR ([2]; all 29 patients with melanoma): 10.3%; PRs/uPRs as best response ([2]; all 29 patients with melanoma): 17.2%; PR or uPR in patients with wild-type BRAF ([2]; expanded melanoma cohort, 3 of 17 patients): 17.6%; Responses (PR/uPR) by disease: lung ([2]; in vivo): 1/1; Responses (PR/uPR) by disease: melanoma ([2]; in vivo): 5/29; Responses (PR/uPR) by disease: ovarian ([2]; in vivo): 1/5; Responses (PR/uPR) by disease: pancreatic ([2]; in vivo): 1/2; Responses (PR/uPR) by disease: renal ([2]; in vivo): 1/1; Responses (PR/uPR) by disease: thyroid ([2]; in vivo): 3/6; PR/uPR as best response ([2]; overall, n=77): 15.6%; Total PR/uPR/SD≥23 weeks ([2]; overall, n=77): 40.3%; Median number of cycles after which confirmed PRs were determined ([2]; overall, range, 4–46 cycles): 18 cycles; Confirmed PR ([2]; schedule 1, 18 patients): no patient; PD ([2]; schedule 1, 18 patients): 44.4%; uPR ([2]; schedule 1, NSCLC): One; Confirmed PR ([2]; schedule 2, 33 patients): 21.2%; Durable SD ([2]; schedule 2, 33 patients): 9 patients; PD ([2]; schedule 2, 33 patients): 18.2%; Accumulation, steady state vs single dose (Plasma pharmacokinetics): 1.5-2.2 fold; Tmax (Plasma pharmacokinetics): 1.5 to 3 h; Cmax (Plasma pharmacokinetics; 3.2 mg): 51.4 (30.5) ng/mL; AUC(0-t) (Plasma pharmacokinetics; 3.2 mg, AUC0-6): 180 ng·h/mL; AUC(0-t) (Plasma pharmacokinetics; 3.2 mg, AUC0-24): 407 ng·h/mL; AUC0-24 (Plasma pharmacokinetics; 5 mg): 649.70 (256.151) ng·hr/mL; AUC(0-t) (Plasma pharmacokinetics; 5 mg, AUC0-6): 245 ng·h/mL; Cmax (Plasma pharmacokinetics; 5 mg, Cmax): 62.6 ng/mL; AUC0-6 (Plasma pharmacokinetics; 8 mg): 678 (262) ng·hr/mL; AUC0-24 (Plasma pharmacokinetics; 8 mg): 1819.57 (735.252) ng·hr/mL; CL/F (Plasma pharmacokinetics; 8 mg): 8.05 L/h; Cmax (Plasma pharmacokinetics; 8 mg): 168 (73.4) ng/mL; Tmax (Plasma pharmacokinetics; 8 mg): 2.5 h; Vd/F (Plasma pharmacokinetics; 8 mg): 86.8 L; AUC(0-t) (Plasma pharmacokinetics; 8 mg, AUC0-6): 613 ng·h/mL; AUC(0-t) (Plasma pharmacokinetics; 8 mg, AUC0-24): 1300 ng·h/mL; Cmax (Plasma pharmacokinetics; 8 mg, Cmax): 177 ng/mL; AUC0-6 (Plasma pharmacokinetics; 10 mg): 815(320) ng·hr/mL; AUC0-24 (Plasma pharmacokinetics; 10 mg): 1984.94 (971.427) ng·hr/mL; Cmax (Plasma pharmacokinetics; 10 mg): 209 (107) ng/mL; Tmax (Plasma pharmacokinetics; 10 mg): 2 h; Vd/F (Plasma pharmacokinetics; 10 mg): 75.4 L; tmax (Plasma pharmacokinetics; 10 mg): 3.00 (0.00−6.00) hr; AUC(0-t) (Plasma pharmacokinetics; 10 mg, AUC0-6): 608 ng·h/mL; AUC(0-t) (Plasma pharmacokinetics; 10 mg, AUC0-24): 1370 ng·h/mL; Cmax (Plasma pharmacokinetics; 10 mg, Cmax): 167 ng/mL; Tmax (Plasma pharmacokinetics; 12 mg): 1.5 h; AUC(0-t) (Plasma pharmacokinetics; 12 mg, AUC0-6): 913 ng·h/mL; AUC(0-t) (Plasma pharmacokinetics; 12 mg, AUC0-24): 1810 ng·h/mL; Cmax (Plasma pharmacokinetics; 12 mg, Cmax): 232 ng/mL; CL/F (Plasma pharmacokinetics; 16 mg): 6.09 L/h; Vd/F (Plasma pharmacokinetics; 16 mg): 68.5 L; AUC(0-t) (Plasma pharmacokinetics; 16 mg, AUC0-6): 1510 ng·h/mL; Cmax (Plasma pharmacokinetics; 16 mg, Cmax): 341 ng/mL; fe (fraction of the dose excreted in urine) ([3]; Melanoma Expansion Cohort, Cycle 1 Day 1, 10 mg, n=25): 0.45 (0.282) %; fe (fraction of the dose excreted in urine) ([3]; Melanoma Expansion Cohort, Cycle 2 Day 1, 10 mg, n=16): 0.95 (0.987) %; fe (fraction of the dose excreted in urine) ([3]; Schedule 2 continuous daily dosing, Cycle 1 Day 1, 3.2 mg, n=3): 0.37 (0.102) %; fe (fraction of the dose excreted in urine) ([3]; Schedule 2 continuous daily dosing, Cycle 1 Day 1, 5 mg, n=7): 1.47 (0.685) %; fe (fraction of the dose excreted in urine) ([3]; Schedule 2 continuous daily dosing, Cycle 1 Day 1, 8 mg, n=10): 0.83^a (0.351) %; fe (fraction of the dose excreted in urine) ([3]; Schedule 2 continuous daily dosing, Cycle 1 Day 1, 12 mg, n=4): 0.68 (0.283) %; fe (fraction of the dose excreted in urine) ([3]; Schedule 2 continuous daily dosing, Cycle 2 Day 1, 8 mg, n=6): 1.26 (1.168) %; fe (fraction of the dose excreted in urine) ([3]; Schedule 2 continuous daily dosing, Cycle 2 Day 1, 16 mg, n=6): 1.35 (0.593) %; Fraction of the dose excreted unchanged in the urine (fe) ([3]; during the 24 hours following the dose, regardless of dose): < 1.5%; VEGF-driven human umbilical vein endothelial cell proliferation [4]: inhibits; VEGF-driven human umbilical vein endothelial cell tube formation [5]: inhibits; Tumor growth [6]: significantly inhibits; Tumor growth [7]: significantly inhibits; Effect of co-administration of CYP3A4 inhibitors and inducers on exposure [8]: neither affected
